The subject of data set [1] is Mycoplasma hyopneumoniae standard strain J strain (Mhp-J; NCTC 10110). As to the kind of experiment: Anti-mycoplasma activity assay, MIC. The class given is cell-based. To be noted: Mesomycoplasma hyopneumoniae, NCTC10110. Here is the method:
(§1) The minimum inhibitory concentration of the pleuromutilin derivative containing thiazole-pyridine benzyl quaternary ammonium salt side chain against different mycoplasmas was tested with tiamulin as (purchased from Shanghai Yuanye Bio-Technology Co., Ltd) a positive control using a microbroth dilution method, and the antibacterial effect of the compound against different mycoplasmas was evaluated.
(§2) Experimental strains include Mycoplasma hyopneumoniae standard strain J strain (Mhp-J; NCTC 10110), Mycoplasma hyopneumoniae clinical isolate LH strain (Mhp-LH), Mycoplasma hyorhini standard strain BTS-7 strain (Mhr-BTS-7; NCTC 10130), Mycoplasma gallisepticum R strain (MG-R) and Mycoplasma synoviae WVU1853 strain (MS-WVU1853; NCTC 10124) (purchased from National Collection of Type Cultures, United Kingdom).
(§3) The specific operation steps are as follows: • (1) preparation of KM2 medium: 38.9 g of KM2 medium (purchased from Guangdong Huankai Microbial Sci. & Tech. Co., Ltd.) was weighed, added to 800 mL of distilled water, boiled and dissolved, and autoclaved at 115° C. for 20 min for later use. • (2) preparation of bacterial liquid stock: 0.5 mL of each of Mycoplasma hyopneumoniae (Mhp), Mycoplasma hyorhina (Mhr), Mycoplasma gallisepticum (MG) and Mycoplasma synoviae (MS) was taken and transferred to 4.5 mL of KM2 liquid medium, and when the colour of the medium turned yellow, each of the bacteria was sub-packaged at 0.5 mL per tube, and stored as the bacterial liquid at −70° C. • (3) determination of bacterial liquid titre (colour change unit, CCU): 96-well plate method was used to measure the bacterial liquid titre. The preserved bacterial liquid stock was taken from −70° C., melt and equilibrated to room temperature. 0.18 mL of KM2 medium was added to each well of the middle 4 rows of the 96-well plate (that is, 4 parallels), 0.02 mL of the bacterial liquid stock was taken and added to the wells of the first column, respectively, and subjected to 10-fold dilution until 10^−11. A negative control containing only KM2 medium was set (column 12). The plate was sealed and put into an incubator at 37° C., and the results were observed day by day. The highest dilution at which the colour of the medium can change was the CCU/mL of the strain. • (4) determination of MIC: the minimum inhibitory concentration of the compound against mycoplasmas was determined by a microbroth dilution method. Each drug to be tested was prepared as a stock solution with a concentration of 2560 μg/mL, and each drug stock solution was 2-fold diluted with KM2 liquid medium, and the test concentration range was 0.015-128 μg/mL (large concentration gradient) and 0.000004-0.06 μg/mL (small concentration gradient). An appropriate amount of seed bacterial liquid was taken and diluted to 10^4 CCU/mL serially according to its titre. Drugs of various dilutions were added sequentially to the 96-well plate, and then an equal amount of diluted bacterial liquid was added. 200 μL of diluted mycoplasma liquid was set as a positive control, 200 μL of KM2 liquid culture medium was set as a negative control, and a solvent control group (10 μL of drug solvent+190 μL of mycoplasma liquid) was also set. Three parallels were set for each experiment. After all the culture plates were sealed, they were allowed to culture at 37° C. and observed daily, and the final MIC values were recorded. (See FIG. 22 for the MIC determination results of the representative compound 7 against 5 mycoplasma strains)

Data set [2] deals with Mycoplasma synoviae WVU1853 strain (MS-WVU1853; NCTC 10124). As to the kind of experiment: Anti-mycoplasma activity assay, MIC. The class given is cell-based. To be noted: Mycoplasmopsis synoviae, NCTC10124. Here is the method:
as §1, §2, §3

The subject of data set [3] is Mycoplasma gallisepticum R strain (MG-R). As to the kind of experiment: Anti-mycoplasma activity assay, MIC. The class given is cell-based. Particulars: Mycoplasmoides gallisepticum. Here is the method: as §1, §2, §3
Data set [4] relates to Mycoplasma hyorhini standard strain BTS-7 strain (Mhr-BTS-7; NCTC 10130). As to the kind of experiment: Anti-mycoplasma activity assay, MIC. The format is cell-based. To be noted: NCTC10130. Here is the method:
as §1, §2, §3

Data set [5] in a line: Determination of solubility of compounds (HPLC). Particulars: thermodynamic from solid. On the procedure:
Experimental method: representative compounds 2, 4 and 7 were selected for solubility determination, and retapamulin hydrochloride was used as a control. 1 mg of each sample was taken and quantitatively dissolved in a 10 mL volumetric flask, and the absorption peak area was measured by a high-performance liquid chromatography; then, the saturated solutions of the representative compounds 2, 4 and 7 and the control drug retapamulin were diluted 10-fold, and the absorption peak area was determined by HPLC; their respective solubility was obtained by calculating the absorption peak area.
The experimental instrument was Shimadzu LC-16, the chromatographic column was Hypersil C18 ODS (4.6×250 mm×5 μm), the flow rate was 1.0 mL/min, the detection wavelength was 300 nm, and the mobile phase was 0.05 mol/L of aqueous acetic acid solution:acetonitrile=30:70.

In data set [6] the test system is Escherichia coli CMCC 44103. As to the kind of experiment: MIC, microbroth dilution, standard strains. The class given is cell-based. To be noted: CMCC44103, CMCC 44103, read-out: Minimum inhibitory concentration. A digest of the protocol: (§4)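 Microbroth dilution MIC; moxifloxacin positive control. Test cpds: pleuromutilin derivatives bearing a thiazole-pyridine benzyl quaternary ammonium side chain.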

In data set [7] the test system is Staphylococcus aureus ATCC 25923. As to the kind of experiment: MIC, microbroth dilution, standard strains. The format is cell-based. To be noted: ATCC25923, ATCC 25923, read-out: Minimum inhibitory concentration. A digest of the protocol: as §4
Data set [8] relates to methicillin-resistant Staphylococcus aureus ATCC 33591. As to the kind of experiment: MIC, microbroth dilution, standard strains. The class given is cell-based. Particulars: ATCC33591, ATCC 33591, read-out: Minimum inhibitory concentration. A digest of the protocol:
as §4

Data set [9] deals with Staphylococcus epidermidis ATCC 12228. As to the kind of experiment: MIC, microbroth dilution, standard strains. Particulars: ATCC12228, ATCC 12228, read-out: Minimum inhibitory concentration. The format is cell-based. The essentials:
as §4

The test system of data set [10] is Staphylococcus aureus ATCC 29213. As to the kind of experiment: MIC, microbroth dilution, standard strains. The class given is cell-based. To be noted: ATCC29213, ATCC 29213, read-out: Minimum inhibitory concentration. A digest of the protocol:
as §4

Data set [11] concerns Escherichia coli ATCC 25922. As to the kind of experiment: MIC, microbroth dilution, standard strains. The format is cell-based. Particulars: ATCC25922, ATCC 25922, read-out: Minimum inhibitory concentration. A digest of the protocol:
as §4

For a further data set, the system named is Salmonella ATCC 14028. As to the kind of experiment: MIC, microbroth dilution, standard strains. The format is cell-based. Particulars: ATCC14028, ATCC 14028, read-out: Minimum inhibitory concentration. The essentials: as §4
Data set [12] concerns Acinetobacter baumannii ATCC 19606. As to the kind of experiment: MIC, microbroth dilution, standard strains. The format is cell-based. To be noted: ATCC19606, ATCC 19606, read-out: Minimum inhibitory concentration. The essentials: as §4

Each structure is given as a SMILES string. Structures can show the parent of a compound that is named as a salt.

Regarding `C=C[C@]1(C)C[C@@H](OC(=O)CSc2nc(-c3cc[n+](Cc4ccc([N+](=O)[O-])cc4)cc3)cs2)[C@]2(C)[C@H](C)CC[C@]3(CCC(=O)[C@H]32)[C@@H](C)[C@@H]1O` [Compound 7, 1-(4-(nitro)benzyl)-4-(2-(8-hydroxy-4,7,9,12-tetramethyl-3-oxo-7-vinyldecahydro-4,9a-propancyclopent[8]cyclen-5-yl)oxy)-2-oxoethyl)thiazol-4-yl)pyridyl bromide salt], the MIC in data set [1] was 4 ng/mL; in [2], 0.015 µg/mL; in data set [3] it was 4 ng/mL; in data set [4] it was 8 ng/mL; in data set [6], 0.5 µg/mL; in [7], 0.5 µg/mL. Besides, the MIC was determined as 1 µg/mL in data set [8]; 2 µg/mL in data set [9]; 0.125 µg/mL in [10]; 1 µg/mL in [11]; 2 µg/mL in the data set with Salmonella ATCC 14028; 2 µg/mL in [12]. Further, the solubility is 11300 µg/mL in [5] (organic solvent or mixture); 3450 µg/mL in [5] (pH 1.5, simulated gastric fluid); 2540 µg/mL in data set [5] (pH 7, water).
